According to patent US20260365641A1, “Aromatic Acetylene Derivative, Preparation Method Therefor, And Use Thereof” (Zhejiang Hisun Pharmaceutical Co., Ltd., priority 2022, published 2026):
≈ marks a conversion by molar mass, not a printed value.

target: T1, recombinant Pseudomonas aeruginosa LpxC (Pseudomonas aeruginosa, UniProt P47205); experiment: Inhibition of enzymatic activity of recombinant Pseudomonas aeruginosa LpxC in vitro; assay type: biochemical; settings: 5 nM LpxC; substrate UDP-3-O—(R-3-hydroxydecanoyl)-GlcNAc; 25 °C, 120 minutes; fluorescamine readout
T1 construct: purchased Signalway Antibody AP74647-2
T1 sequence (P47205 1-303): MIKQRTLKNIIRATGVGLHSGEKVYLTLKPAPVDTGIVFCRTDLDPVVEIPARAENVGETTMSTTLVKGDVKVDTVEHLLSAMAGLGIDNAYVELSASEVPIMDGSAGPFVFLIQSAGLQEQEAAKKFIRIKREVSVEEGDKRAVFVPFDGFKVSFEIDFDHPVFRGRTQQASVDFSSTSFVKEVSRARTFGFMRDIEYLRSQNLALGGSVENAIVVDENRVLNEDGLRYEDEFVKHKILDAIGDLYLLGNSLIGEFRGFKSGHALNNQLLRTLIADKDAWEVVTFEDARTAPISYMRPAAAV
Description: The following method was used to determine degrees of inhibition of the compounds of the present invention on the enzymatic activity of recombinant Pseudomonas aeruginosa LpxC in vitro.
The test process was briefly described as follows: the tested compound was first dissolved in DMSO to prepare a 10 mM storage solution. The reaction was carried out in a 96-well microplate. Firstly, 20 μL of recombinant Pseudomonas aeruginosa LpxC (purchased from Signalway Antibody, article number AP74647-2) was added into the wells, and the final concentrations were 5 nM respectively. 5 μL of the compound to be tested was added, diluted in 4-fold, with 8 concentration points, and the concentration range was 0.61-10000 nM. 5 μL of LpxC substrate UDP-3-O—(R-3-hydroxydecanoyl)-GlcNAc (purchased from Biosynth Carbosynth, article number mu75071) was added, wherein a final concentration of the substrate was […], and the substrate was incubated at 25 °C for 120 minutes. Subsequently, 20 μL of 2.0 mg/mL fluorescamine (purchased from sigma aldrich, article number F9015, wherein a solvent was dimethylformamide/acetonitrile (1:1)) was added to the reaction system, mixed evenly and reacted for 10 minutes. Finally, 50 μL of 200 mM sodium phosphate buffer solution (pH 8.0) was added to stop the reaction, and a microplate reader (BMG) was used for reading. An excitation wavelength and an emission wavelength were 390 nm and 495 nm respectively. Compared with the fluorescence intensity ratio of a control group (0.1% DMSO), the percentage inhibition rates of the compounds at each concentration were calculated, and the IC50 values of the compounds were obtained by performing nonlinear regression analysis with logarithmic value of the compound concentration-inhibition rate by GraphPad Prism 5 software, which can be seen in Table 1.

First: C[C@H](O)c1nccn1Cc1cc(-c2ccc(C#CC3CC4(CCNCC4)C3)cc2)on1 [Example 1, (S)-1-(1-((5-(4-((7-azaspiro[3.5]nonan-2-yl)ethynyl)phenyl)isoxazol-3-yl)methyl)-1H-imidazol-2-yl)ethan-1-ol]
Second: C[C@H](O)c1nccn1Cc1cc(-c2ccc(C#CC3CC4(CCN(C5CNC5)CC4)C3)cc2)on1 [Example 30, (S)-1-(1-((5-(4-((7-(azetidin-3-yl)-7-azaspiro[3.5]nonan-2-yl)ethynyl)phenyl)isoxazol-3-yl)methyl)-1H-imidazol-2-yl)ethan-1-ol]
The IC50 of the first is 1.7-fold lower: 0.00946 µM for the first, 0.0162 µM for the second. The first is the more potent here.

First: C[C@H](O)c1nccn1Cc1cc(-c2ccc(C#CC3CC4(CCN(CCCC(=O)O)C4)C3)cc2)on1 (stereo partly drawn) [Example 4, (S)-4-(2-((4-(3-((2-(1-hydroxyethyl)-1H-imidazol-1-yl)methyl)isoxazol-5-yl)phenyl)ethynyl)-6-azaspiro[3.4]octan-6-yl)butanoic acid]
Second: C[C@H](O)c1nccn1Cc1cc(-c2ccc(C#CC3CC4(CCN(CCC(=O)O)CC4)C3)cc2)on1 [Example 5, (S)-3-(2-((4-(3-((2-(1-hydroxyethyl)-1H-imidazol-1-yl)methyl)isoxazol-5-yl)phenyl)ethynyl)-7-azaspiro[3.5]nonan-7-yl)propanoic acid]
The IC50 of the first is 3.3-fold higher: 0.0234 µM for the first, 0.00703 µM for the second. The second is the more potent here.

`C[C@H](O)c1nccn1Cc1cc(-c2ccc(C#CC3CC4(CCN(CCCC(N)=O)CC4)C3)cc2)on1` [Example 8, (S)-4-(2-((4-(3-((2-(1-hydroxyethyl)-1H-imidazol-1-yl)methyl)isoxazol-5-yl)phenyl)ethynyl)-7-azaspiro[3.5]nonan-7-yl)butanamide] and `C[C@H](O)c1nccn1Cc1cc(-c2ccc(C#CC3CC4(CCN(CCC(N)=O)CC4)C3)cc2)on1` [Example 9, (S)-3-(2-((4-(3-((2-(1-hydroxyethyl)-1H-imidazol-1-yl)methyl)isoxazol-5-yl)phenyl)ethynyl)-7-azaspiro[3.5]nonan-7-yl)propanamide] are within 1.5-fold of each other in IC50: 0.0193 µM for the first, 0.0188 µM for the second.

First: C[C@H](O)c1nccn1Cc1cc(-c2ccc(C#CC3CC4(CCN(CC(=O)O)CC4)C3)cc2)on1 [Example 10, (S)-2-(2-((4-(3-((2-(1-hydroxyethyl)-1H-imidazol-1-yl)methyl)isoxazol-5-yl)phenyl)ethynyl)-7-azaspiro[3.5]nonan-7-yl)acetic acid]
Second: C[C@H](O)c1nccn1Cc1cc(-c2ccc(C#CC3CC4(CCN(CCO)CC4)C3)cc2)on1 [Example 11, (S)-2-(2-((4-(3-((2-(1-hydroxyethyl)-1H-imidazol-1-yl)methyl)isoxazol-5-yl)phenyl)ethynyl)-7-azaspiro[3.5]nonan-7-yl)ethan-1-ol]
The IC50 of the first is 2.6-fold higher: 0.0228 µM for the first, 0.00866 µM for the second.

Compared with `C[C@H](O)c1nccn1Cc1cc(-c2ccc(C#CC3CC4(CCN(C(=O)CC(=O)O)CC4)C3)cc2)on1` [Example 14, (S)-3-(2-((4-(3-((2-(1-hydroxyethyl)-1H-imidazol-1-yl)methyl)isoxazol-5-yl)phenyl)ethynyl)-7-azaspiro[3.5]nonan-7-yl)-3-oxopropanoic acid], `C[C@H](O)c1nccn1Cc1cc(-c2ccc(C#CC3CC4(CCN(C(=O)CC(N)=O)CC4)C3)cc2)on1` [Example 15, (S)-3-(2-((4-(3-((2-(1-hydroxyethyl)-1H-imidazol-1-yl)methyl)isoxazol-5-yl)phenyl)ethynyl)-7-azaspiro[3.5]nonan-7-yl)-3-oxopropanamide] is 1.5-fold lower in IC50: 0.00681 µM for the first, 0.00442 µM for the second. The second is the more potent here.

First: C[C@H](O)c1nccn1Cc1cc(-c2ccc(C#CC3CC4(CCN(C(=O)CN)CC4)C3)cc2)on1 [Example 16, (S)-2-amino-1-(2-((4-(3-((2-(1-hydroxyethyl)-1H-imidazol-1-yl)methyl)isoxazol-5-yl)phenyl)ethynyl)-7-azaspiro[3.5]nonan-7-yl)ethan-1-one]
Second: C[C@H](O)c1nccn1Cc1cc(-c2ccc(C#CC3CC4(CCN(C(=O)[C@@H](N)CO)CC4)C3)cc2)on1 [Example 18, (S)-2-amino-3-hydroxy-1-(2-((4-(3-((2-((S)-1-hydroxyethyl)-1H-imidazol-1-yl)methyl)isoxazol-5-yl)phenyl)ethynyl)-7-azaspiro[3.5]nonan-7-yl)propan-1-one]
The IC50 of the first is 2.3-fold higher: 0.0103 µM for the first, 0.00442 µM for the second.

Going from `C[C@H](O)c1nccn1Cc1cc(-c2ccc(C#CC3CC4(CCN(C(N)=O)C4)C3)cc2)on1` (stereo partly drawn) [Example 24, (S)-2-((4-(3-((2-(1-hydroxyethyl)-1H-imidazol-1-yl)methyl)isoxazol-5-yl)phenyl)ethynyl)-6-azaspiro[3.4]octane-6-carboxamide] to `C[C@H](O)c1nccn1Cc1cc(-c2ccc(C#CC3CC4(CCN(C(=O)CO)C4)C3)cc2)on1` (stereo partly drawn) [Example 28, (S)-2-hydroxy-1-(2-((4-(3-((2-(1-hydroxyethyl)-1H-imidazol-1-yl)methyl)isoxazol-5-yl)phenyl)ethynyl)-6-azaspiro[3.4]octan-6-yl)ethan-1-one], the IC50 rises from 0.0069 µM to 0.0141 µM (2-fold).

`C[C@H](O)c1nccn1Cc1cc(-c2ccc(C#CC3CC4(C3)CN(C(=O)CC#N)C4)cc2)on1` [Example 32, (S)-3-(6-((4-(3-((2-(1-hydroxyethyl)-1H-imidazol-1-yl)methyl)isoxazol-5-yl)phenyl)ethynyl)-2-azaspiro[3.3]heptan-2-yl)-3-oxopropanenitrile] and `C[C@H](O)c1nccn1Cc1cc(-c2ccc(C#CC3CC4(C3)CN(C(=O)NCCO)C4)cc2)on1` [Example 50, (S)-N-(2-hydroxyethyl)-6-((4-(3-((2-(1-hydroxyethyl)-1H-imidazol-1-yl)methyl)isoxazol-5-yl)phenyl)ethynyl)-2-azaspiro[3.3]heptane-2-carboxamide] are within 1.5-fold of each other in IC50: 0.0225 µM for the first, 0.0235 µM for the second.

`C[C@H](O)c1nccn1Cc1cc(-c2ccc(C#CC3CC4(C3)CN(Cc3ncc[nH]3)C4)cc2)on1` [Example 46, (S)-1-(1-((5-(4-((2-((1H-imidazol-2-yl)methyl)-2-azaspiro[3.3]heptan-6-yl)ethynyl)phenyl)isoxazol-3-yl)methyl)-1H-imidazol-2-yl)ethan-1-ol] and `C[C@H](O)c1nccn1Cc1cc(-c2ccc(C#CC3CC4(C3)CN(C(=O)C3CCNC(=O)C3)C4)cc2)on1` (stereo partly drawn) [Example 54, 4-(6-((4-(3-((2-((S)-1-hydroxyethyl)-1H-imidazol-1-yl)methyl)isoxazol-5-yl)phenyl)ethynyl)-2-azaspiro[3.3]heptane-2-carbonyl)piperidin-2-one] are within 1.5-fold of each other in IC50: 0.0215 µM for the first, 0.0155 µM for the second.

Work on `C[C@H](O)c1nccn1Cc1cc(-c2ccc(C#CC3CC4(C3)CN(C(=O)N3CCC(O)CC3)C4)cc2)on1` [Example 51, (S)-(6-((4-(3-((2-(1-hydroxyethyl)-1H-imidazol-1-yl)methyl)isoxazol-5-yl)phenyl)ethynyl)-2-azaspiro[3.3]heptan-2-yl)(4-hydroxypiperidin-1-yl)methanone] yielded an IC50 of 0.0151 µM.

system: E. coli ATCC 25922; experiment: Antibacterial activity, minimum inhibitory concentration (MIC) in vitro, broth dilution; assay type: cell-based; settings: Escherichia coli, ATCC25922, 5×10^5 cfu/mL, 35 °C, 18-24 hours
Description: (§1) The minimum inhibitory concentration (MIC) in vitro was determined according to CLSI's guidelines, and a minimal broth dilution method was used.
(§2) The test process was briefly described as follows: the tested compound was dissolved in DMSO to prepare a storage solution of […], and then prepared into 11 two-fold-diluted 100× high-concentration working liquids (a final concentration of the system was 64 μg/mL to 0.06 μg/mL) by DMSO. Stains (K. pneumoniae ATCC13883, K. pneumoniae ATCC51504 and E. coli ATCC 25922) frozen at −80 °C with glycerin were inoculated to a solid agar culture medium, placed into an incubator for culturing for 18-24 hours at 35 °C to finish the preparation work of the strains. A proper amount of solid plate culture was collected, re-suspended in normal saline, and uniformly mixed. The turbidity of the bacterial suspension was adjusted to a proper turbidity by a turbidity meter, containing about 1×10^8 cfu/mL of bacteria. Then, the turbidity-regulated bacterial suspension was diluted with a test culture medium (type: CAMHIIB, purchased from BD company) to a bacterial concentration of 5×10^5 cfu/mL, thus finishing the preparation of an inoculation solution. 198 μL of the inoculation solution was inoculated into a 96-well plate, and added with 2 μL 100× high concentration working liquid of the compound, then the 96-well plate was placed at 35 °C for culturing for 18-24 hours.

`C[C@H](O)c1nccn1Cc1cc(-c2ccc(C#CC3=CCN(C(=O)C4[C@H]5CCC[C@@H]45)CC3)cc2)on1` (stereo partly drawn) [Example 35, ((1R,5S)-bicyclo[3.1.0]hexan-6-yl)(4-((4-(3-((2-((S)-1-hydroxyethyl)-1H-imidazol-1-yl)methyl)isoxazol-5-yl)phenyl)ethynyl)-3,6-dihydropyridin-1(2H)-yl)methanone] and `C[C@H](O)c1nccn1Cc1cc(-c2ccc(C#CC3=CCN(C(=O)Cn4cncn4)CC3)cc2)on1` [Example 37, (S)-1-(4-((4-(3-((2-(1-hydroxyethyl)-1H-imidazol-1-yl)methyl)isoxazol-5-yl)phenyl)ethynyl)-3,6-dihydropyridin-1(2H)-yl)-2-(1H-1,2,4-triazol-1-yl)ethan-1-one] are the same in MIC: 2 µg/mL (≈ 4.14 µM) for the first, 2 µg/mL (≈ 4.14 µM) for the second.

system: K. pneumoniae ATCC51504; experiment: as above; assay type: cell-based; settings: Klebsiella pneumoniae, 5×10^5 cfu/mL, 35 °C, 18-24 hours
Description: as §1, §2

`C[C@H](O)c1nccn1Cc1cc(-c2ccc(C#CC3=CCN(C(=O)C4[C@H]5CCC[C@@H]45)CC3)cc2)on1` (stereo partly drawn) [Example 35, ((1R,5S)-bicyclo[3.1.0]hexan-6-yl)(4-((4-(3-((2-((S)-1-hydroxyethyl)-1H-imidazol-1-yl)methyl)isoxazol-5-yl)phenyl)ethynyl)-3,6-dihydropyridin-1(2H)-yl)methanone] and `C[C@H](O)c1nccn1Cc1cc(-c2ccc(C#CC3=CCN(C(=O)Cn4cncn4)CC3)cc2)on1` [Example 37, (S)-1-(4-((4-(3-((2-(1-hydroxyethyl)-1H-imidazol-1-yl)methyl)isoxazol-5-yl)phenyl)ethynyl)-3,6-dihydropyridin-1(2H)-yl)-2-(1H-1,2,4-triazol-1-yl)ethan-1-one] are the same in MIC: 2 µg/mL (≈ 4.14 µM) for the first, 2 µg/mL (≈ 4.14 µM) for the second.
